Test results reported in patent US8748412B2, “Phenylalanine derivatives and their use as non-peptide GLP-1 receptor modulators” (Argusina Bioscience Inc., priority 2011, dated 2014).

target: T1, human GLP1R (Homo sapiens, UniProt P43220); experiment: Human GLP-1 receptor transfected cell assay (MRE/CRE-luciferase reporter gene, agonist activity); type: cell-based; settings: 6 h; concentration 1 μM; read-out: Activity (agonist), percentage of the activity of the control
T1 construct: expressed in transfected cells; host or cells: CHO cells (ATCC), transient transfection with pCMV-human GLP1R
T1 sequence (P43220 24-463): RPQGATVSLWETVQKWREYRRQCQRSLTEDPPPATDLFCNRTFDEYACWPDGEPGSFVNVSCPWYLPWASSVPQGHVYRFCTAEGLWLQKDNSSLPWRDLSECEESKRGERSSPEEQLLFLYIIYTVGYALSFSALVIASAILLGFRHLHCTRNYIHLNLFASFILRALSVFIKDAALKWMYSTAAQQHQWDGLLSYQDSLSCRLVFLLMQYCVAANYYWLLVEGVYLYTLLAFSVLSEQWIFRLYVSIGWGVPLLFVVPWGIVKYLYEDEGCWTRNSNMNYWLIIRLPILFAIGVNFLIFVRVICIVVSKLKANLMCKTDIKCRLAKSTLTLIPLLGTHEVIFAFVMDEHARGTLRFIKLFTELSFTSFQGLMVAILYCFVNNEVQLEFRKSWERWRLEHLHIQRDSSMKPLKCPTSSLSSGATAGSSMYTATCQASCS
Description: The glucagon-like peptide I receptor (GLP1R) is a class B Gs-coupled membrane receptor, an agonist of which activates adenylate cyclase (AC) and elevates intracellular cAMP level. In turn, the high content of secondary messengers can activate the cAMP response element binding protein (CREB), which can translocate into nucleus to activate gene transcription.
A reporter gene based screening assay was established to measure the effect of a compound on GLP1R. In this assay, a compound was incubated with CHO cells transiently transfected with a human GLP1R plasmid and a multiple response element (MRE)/cAMP response element (CRE)-driven luciferase reporter plasmid. Once luciferase was induced by the compound, its specific substrate can be activated to produce light signal for measurement.
Materials used in this assay included: (i) cell line: Chinese hamster ovary (CHO) cells (ATCC); (ii) fetal bovine serum (FBS) (Biochrom Co.); (iii) culture medium: RPMI1640 (Invitrogen Co.) supplemented with 10% FBS; (iv) LIPOFECTAMINE™ 2000 Reagent (Invitrogen Co.); (v) plasmids: pCMV-human GLP1R and pGL3-1905 reporter plasmid; (vi) GLP1 (7-36 amide) peptide (Sigma Co.); and (vii) BRIGHT-GLO™ Luciferase Assay System (Promega Co.).
Instruments used in this assay included: (i) Form a carbon dioxide incubator (Thermo Form a Co.); and (ii) Flexstation 3 (Molecular Device Co.).
Before transfection, CHO cells were plated into a 6-well culture plate at 800,000/2 mL/well, and cultured at 37° C. in 5% CO2 overnight. On the transfection day, cells were transfected with receptor plasmid and reporter plasmid using LIPOFECTAMINE™ 2000 reagent. After 6-hour transfection, cells were digested and seeded into 96-well plates at 20,000/100 μL/well. After 14-16 hour incubation, transfected cells were washed with 100 μL serum-free RPMII 640 medium first, and then added 50 μL of the culture medium. The GLP-1 standard and test compounds were respectively diluted to a series of concentrations, which were then added into the above 96-well culture plate at 50 μL/well. The cells were incubated at 37° C. in 5% CO2 for 6 hrs. The activity of luciferase was detected using BRIGHT-GLO™ Luciferase Analytic System, and the reading was performed with a Flexstation3 plate reader machine.

activation at 1 µM [%]	Compound
> 60	Cc1ccc(-c2ccc(C(=O)NC(Cc3ccc(-c4noc(-c5ccc(NC(=O)OC(C)(C)C)cc5)n4)c(F)c3)C(=O)O)o2)cc1F (stereo not shown) [Compound 1N]
> 60	Cc1ccc(-c2cccc(C(=O)NC(Cc3ccc(-c4noc(-c5ccc(NC(=O)OC(C)(C)C)cc5)n4)c(F)c3)C(=O)O)c2)cc1 (stereo not shown) [Compound 1U]
40 to 60	CC(C)(C)OC(=O)Nc1ccc(-c2nc(-c3ccc(CC(NC(=O)c4cccc(-c5ccc(F)cc5)c4)C(=O)O)cc3F)no2)cc1 (stereo not shown) [Compound 1V]
40 to 60	Cc1ccc(-c2ccc(C(=O)NC(Cc3ccc(-c4noc(-c5ccc(NC(=O)OC(C)C)cc5)n4)c(F)c3)C(=O)O)o2)cc1 (stereo not shown) [Compound 2D]
> 60	CC(C)(C)OC(=O)Nc1ccc(-c2nc(-c3ccc(CC(NC(=O)c4cccc(-c5ccc(C6CC6)cc5)c4)C(=O)O)cc3F)no2)cc1 (stereo not shown) [Compound 2L]

same assay, conditions: 6 h; concentration 3 μM; read-out: Activity (agonist), percentage of the activity of the control

activation at 3 µM [%]	Compound
40 to 60	Cc1ccc(-c2ccc(C(=O)N[C@H](Cc3ccc(F)c(-c4noc(-c5ccc(NC(=O)OC(C)(C)C)cc5)n4)c3)C(=O)O)o2)cc1 [Compound 1E]
20 to 40	Cc1ccc(-c2ccc(C(=O)NC(Cc3ccc(-c4noc(-c5ccc(NC(=O)OC(C)(C)C)cc5C)n4)c(F)c3)C(=O)O)o2)cc1 (stereo not shown) [Compound 1R]
> 60	CC(C)(C)OC(=O)Nc1ccc(-c2nc(-c3ccc(CC(NC(=O)c4cccc(-c5ccc(C(F)(F)F)cc5)c4)C(=O)O)cc3F)no2)cc1 (stereo not shown) [Compound 1W]
40 to 60	CC(C)(C)OC(=O)Nc1ccc(-c2nc(-c3ccc(CC(NC(=O)c4ccc(-c5ccccn5)s4)C(=O)O)cc3F)no2)cc1 (stereo not shown) [Compound 1X]
40 to 60	CC(C)(C)OC(=O)Nc1ccc(-c2nc(-c3ccc(CC(NC(=O)/C=C/c4ccc(Cl)c(C(F)(F)F)c4)C(=O)O)cc3F)no2)cc1 (stereo not shown) [Compound 2B]
40 to 60	Cc1ccc(-c2ccc(C(=O)NC(Cc3ccc(-c4noc(-c5ccc(NC(=O)C(C)C)cc5)n4)c(F)c3)C(=O)O)o2)cc1 (stereo not shown) [Compound 2C]
40 to 60	Cc1ccc(-c2ccc(C(=O)N[C@H](Cc3cc(C)cc(-c4noc(-c5ccc(NC(=O)OC(C)(C)C)cc5)n4)c3)C(=O)O)o2)cc1 [Compound 2E]

same assay, conditions: 6 h; concentration 3.16 μM; read-out: Activity (agonist), percentage of the activity of the control

activation at 3.16 µM [%]	Compound
> 60	CC(C)(C)OC(=O)Nc1ccc(C(=O)NC(C)(Cc2ccc(OC(=O)c3ccc(NC(=O)OC(C)(C)C)cc3)c(F)c2)C(=O)O)cc1 (stereo not shown) [Compound 1B]
20 to 40	CC(C)(C)OC(=O)Nc1ccc(-c2nc(-c3ccc(CC(NC(=O)C4CC4c4ccccc4)C(=O)O)cc3F)no2)cc1 (stereo not shown) [Compound 1D]
> 60	Cc1ccc(-c2ccc(C(=O)NC(Cc3ccc(-c4noc(-c5ccc(NC(=O)OC(C)(C)C)cc5)n4)c(F)c3)c3nnn[nH]3)o2)cc1 (stereo not shown) [Compound 1H]
> 60	CN(C)c1ccc(-c2ccc(C(=O)NC(Cc3ccc(-c4noc(-c5ccc(NC(=O)OC(C)(C)C)cc5)n4)c(F)c3)C(=O)O)o2)cc1 (stereo not shown) [Compound 1I]
> 60	COc1ccc(-c2ccc(C(=O)NC(Cc3ccc(-c4noc(-c5ccc(NC(=O)OC(C)(C)C)cc5)n4)c(F)c3)C(=O)O)o2)cc1 (stereo not shown) [Compound 1J]
> 60	CC(C)(C)OC(=O)Nc1ccc(-c2nc(-c3ccc(CC(NC(=O)c4ccc(-c5ccc(Cl)cc5Cl)o4)C(=O)O)cc3F)no2)cc1 (stereo not shown) [Compound 1L]
20 to 40	CC(C)c1ccc(-c2ccc(C(=O)NC(Cc3ccc(-c4noc(-c5ccc(NC(=O)OC(C)(C)C)cc5)n4)c(F)c3)C(=O)O)o2)cc1 (stereo not shown) [Compound 1O]
> 60	Cc1ccc(-c2ccc(C(=O)NC(Cc3ccc(-c4noc(-c5ccc(NC(=O)OC(C)(C)C)cc5C(F)(F)F)n4)c(F)c3)C(=O)O)o2)cc1 (stereo not shown) [Compound 1P]
> 60	Cc1ccc(-c2ccc(C(=O)NC(Cc3ccc(-c4noc(-c5ccc(NC(=O)OC(C)(C)C)cc5)n4)c(F)c3)C(=O)O)o2)cc1Cl (stereo not shown) [Compound 1Q]
> 60	CC(C)(C)OC(=O)Nc1ccc(-c2nc(-c3ccc(CC(NC(=O)c4cccc(-c5ccc(C#N)cc5)c4F)C(=O)O)cc3F)no2)cc1 (stereo not shown) [Compound 2J]
> 60	CC(C)c1ccc(-c2cccc(C(=O)NC(Cc3ccc(-c4noc(-c5ccc(NC(=O)OC(C)(C)C)cc5)n4)c(F)c3)C(=O)O)c2)cc1 (stereo not shown) [Compound 2K]
> 60	CC(C)(C)OC(=O)Nc1ccc(-c2nc(-c3ccc(CC(NC(=O)c4cccc(-c5ccc(C6CC6)cc5)n4)C(=O)O)cc3F)no2)cc1 (stereo not shown) [Compound 2M]
> 60	CC(C)(C)OC(=O)Nc1ccc(-c2nc(-c3ccc(CC(NC(=O)c4cccc(-c5ccc(Cl)cc5F)n4)C(=O)O)cc3F)no2)cc1 (stereo not shown) [Compound 2N]
> 60	Cc1cc(-c2nc(C(=O)NC(Cc3ccc(-c4noc(-c5ccc(NC(=O)OC(C)(C)C)cc5)n4)c(F)c3)C(=O)O)c[nH]2)ccc1F (stereo not shown) [Compound 2Q]
> 60	Cc1ccc(-c2nc(C(=O)NC(Cc3ccc(-c4noc(-c5ccc(NC(=O)OC(C)(C)C)cc5)n4)c(F)c3)C(=O)O)c[nH]2)cc1 (stereo not shown) [Compound 2R]

same assay, conditions: 6 h; concentration 5 μM; read-out: Activity (agonist), percentage of the activity of the control

activation at 5 µM [%]	Compound
> 60	Cc1ccc(-c2ccc(C(=O)NC(Cc3ccc(OC(=O)c4ccc(NC(=O)OC(C)(C)C)cc4)c(F)c3)C(=O)O)o2)cc1 (stereo not shown) [Compound 1A]
> 60	CC(C)(C)OC(=O)Nc1ccc(-c2nc(-c3ccc(CC(NC(=O)c4ccnc(Cl)c4)C(=O)O)cc3F)no2)cc1 (stereo not shown) [Compound 1F]

same assay, conditions: 6 h; concentration 10 μM; read-out: Activity (agonist), percentage of the activity of the control

activation at 10 µM [%]	Compound
> 60	CC(C)(C)OC(=O)Nc1ccc(-c2nc(-c3ccc(CC(NC(=O)/C=C/c4ccc(F)cc4)C(=O)O)cc3F)no2)cc1 (stereo not shown) [Compound 1C]
> 60	Cc1cccc(-c2ccc(C(=O)NC(Cc3ccc(-c4noc(-c5ccc(NC(=O)OC(C)(C)C)cc5)n4)c(F)c3)C(=O)O)o2)c1 (stereo not shown) [Compound 1K]
> 60	Cc1cc(-c2ccc(C(=O)NC(Cc3ccc(-c4noc(-c5ccc(NC(=O)OC(C)(C)C)cc5)n4)c(F)c3)C(=O)O)o2)ccc1F (stereo not shown) [Compound 1M]
40 to 60	CC(C)(C)OC(=O)Nc1ccc(-c2nc(-c3ccc(CC(NC(=O)c4cccc(-c5ccc(Cl)cc5)c4F)C(=O)O)cc3F)no2)cc1 (stereo not shown) [Compound 1S]
40 to 60	CC(C)(C)OC(=O)Nc1ccc(-c2nc(-c3ccc(CC(NC(=O)c4cccc(-c5ccc(F)cc5)n4)C(=O)O)cc3F)no2)cc1 (stereo not shown) [Compound 1T]
> 60	CC(C)(C)OC(=O)Nc1ccc(-c2nc(-c3ccc(CC(NC(=O)c4cnc(-c5ccccc5)[nH]4)C(=O)O)cc3F)no2)cc1 (stereo not shown) [Compound 1Y]
40 to 60	CC(C)(C)OC(=O)Nc1ccc(-c2nc(-c3ccc(CC(NC(=O)c4cc(-c5ccccc5)cs4)C(=O)O)cc3F)no2)cc1 (stereo not shown) [Compound 1Z]
> 60	CC(C)(C)OC(=O)Nc1ccc(-c2nc(-c3ccc(CC(NC(=O)c4cn(-c5ccc(C(F)(F)F)cc5)nn4)C(=O)O)cc3F)no2)cc1 (stereo not shown) [Compound 2A]
10 to 20	Cc1ccc(-c2cccc(C(=O)NC(Cc3ccc(-c4noc(-c5ccc(NC(=O)OC(C)(C)C)cc5)n4)c(F)c3)C(=O)O)n2)cc1 (stereo not shown) [Compound 2F]
40 to 60	CC(C)(C)OC(=O)Nc1ccc(-c2nc(-c3ccc(CC(NC(=O)c4cccc(-c5ccc(Cl)cc5)c4)C(=O)O)cc3F)no2)cc1 (stereo not shown) [Compound 2G]
40 to 60	CCc1ccc(-c2cccc(C(=O)NC(Cc3ccc(-c4noc(-c5ccc(NC(=O)OC(C)(C)C)cc5)n4)c(F)c3)C(=O)O)c2)cc1 (stereo not shown) [Compound 2I]
> 60	CSc1ccc(-c2cccc(C(=O)NC(Cc3ccc(-c4noc(-c5ccc(NC(=O)OC(C)(C)C)cc5)n4)c(F)c3)C(=O)O)n2)cc1 (stereo not shown) [Compound 2O]

Compound	activation at 10 µM [%]
Cc1ccc(-c2ccc(C(=O)NC(Cc3ccc(-c4noc(-c5ccc(NC(=O)OC(C)(C)C)cc5)n4)c(F)c3)C(=O)O)o2)cc1 (stereo not shown) [Compound 1G, 3-{4-[5-(4-tert-Butoxycarbonylamino-phenyl)-[1,2,4]oxadiazol-3-yl]-3-fluoro-phenyl}-2-[(5-p-tolyl-furan-2-carbonyl)-amino]-propionic acid]	> 60

same assay, conditions: concentration 10 μM

Compound	Activity (agonist), percentage of the activity of the control
Cc1ccc(-n2cc(C(=O)NC(Cc3ccc(-c4noc(-c5ccc(NC(=O)OC(C)(C)C)cc5)n4)c(F)c3)C(=O)O)cn2)cc1F (stereo not shown) [Compound 2P, 3-(4-(5-(4-((tert-butoxcarbonyl)amino)phenyl)-1,2,4-oxadiazol-3-yl)-3-fluorophenyl)-2-(1-(3-fluoro-4-methylphenyl)-1H-pyrazole-4-carboxamido)propanoic acid]	A (A represents a value no smaller than 60%)
